Measured values: patent publication US6610677B2, “Pyrazole compounds useful as protein kinase inhibitors” (Vertex Pharmaceuticals Incorporated, priority 2000, dated 2003)
pKi: −log10 of the molar value.

Key:
Aurora-2 = target: T1, Aurora-2 (Homo sapiens, UniProt O14965); assay: Ki determination for the inhibition of Aurora-2 (coupled enzyme assay); assay type: biochemical; conditions: 70 nM Aurora-2, peptide LRRASLG, 30° C
T1 sequence (O14965 1-403): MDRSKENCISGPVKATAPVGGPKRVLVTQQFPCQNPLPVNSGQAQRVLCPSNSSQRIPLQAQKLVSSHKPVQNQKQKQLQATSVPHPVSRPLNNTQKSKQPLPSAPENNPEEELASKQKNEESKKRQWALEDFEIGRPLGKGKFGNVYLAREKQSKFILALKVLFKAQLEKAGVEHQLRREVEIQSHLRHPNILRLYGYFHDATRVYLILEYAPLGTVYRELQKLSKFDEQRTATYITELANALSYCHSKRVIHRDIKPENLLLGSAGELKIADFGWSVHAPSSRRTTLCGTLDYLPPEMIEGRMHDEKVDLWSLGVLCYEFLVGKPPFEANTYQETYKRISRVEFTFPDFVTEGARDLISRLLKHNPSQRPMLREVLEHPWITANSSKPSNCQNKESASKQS
How it was run: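 Ki came from reaction rates plotted against inhibitor concentration, with rates taken as A340 decrease over 5 min at 30° C. Enzyme (70 nM final) was added after 10 min compound preincubation; stock buffer held […], 800 μM LRRASLG, PK/LDH coupling, pH 7.5.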

GSK-3β (AA 1-420) = target: T2, GSK-3β (AA 1-420) (Homo sapiens, UniProt P49841); assay: Ki determination for the inhibition of GSK-3 (coupled enzyme system); assay type: biochemical; conditions: 20 μM ATP, 300 μM peptide, 20 nM GSK-3β, 30° C
T2 construct: GSK-3β (AA 1-420)
T2 sequence (P49841 whole entry, the tested form may be a part): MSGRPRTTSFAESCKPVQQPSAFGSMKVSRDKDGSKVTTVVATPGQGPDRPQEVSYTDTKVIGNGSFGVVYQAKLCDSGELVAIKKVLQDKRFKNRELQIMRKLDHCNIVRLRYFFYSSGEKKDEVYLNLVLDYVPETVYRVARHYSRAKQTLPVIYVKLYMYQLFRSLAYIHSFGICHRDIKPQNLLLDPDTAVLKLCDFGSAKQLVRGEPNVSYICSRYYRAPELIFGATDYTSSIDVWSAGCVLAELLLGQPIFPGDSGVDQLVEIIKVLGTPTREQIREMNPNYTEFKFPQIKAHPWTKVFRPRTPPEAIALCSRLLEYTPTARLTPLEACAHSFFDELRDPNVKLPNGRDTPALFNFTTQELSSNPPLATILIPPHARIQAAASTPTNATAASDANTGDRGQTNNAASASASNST
How it was run: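 Pyruvate kinase/lactate dehydrogenase-coupled NADH assay with 20 nM GSK-3β (AA 1-420), 20 μM ATP, 300 μM phosphopeptide HSSPHQS(PO3H2)EDEEE in HEPES pH 7.5, 1.5% DMSO, 30 °C. Compound (12 points, 0.002–30 μM) preincubated 10 min before ATP start; Ki derived from 10-min rates versus inhibitor concentration.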

pKi (Aurora-2)	pKi (GSK-3β (AA 1-420))	melting point [°C]	Structure (SMILES)
6.00 to 7.00	4.70 to 6.00	242 to 244	Cc1cc(Nc2cc(-c3ccccc3)nc3ccccc23)n[nH]1 [Compound V-4, (5-Methyl-2H-pyrazol-3-yl)-(2-phenyl-quinolin-4-yl)-amine]
4.70 to 6.00	> 7.00	235 to 237	Cc1cc(Nc2n[nH]c3ccccc23)nc(-c2ccccc2C(F)(F)F)n1 [II-19, (1H-Indazol-3-yl)-[6-methyl-2-(2-trifluoromethyl-phenyl)-pyrimidin-4-yl]-amine]
	> 7.00	183 to 186	Cc1nc(-c2ccccc2C(F)(F)F)nc(Nc2n[nH]c3ccccc23)c1C [II-24, [5,6-Dimethyl-2-(2-trifluoromethyl-phenyl)-pyrimidin-4-yl]-(1H-indazol-3-yl)-amine]
	> 7.00	160 to 163	Cc1nc(-c2ccccc2C(F)(F)F)nc(Nc2n[nH]c3ccc(F)cc23)c1C [II-25, [5,6-Dimethyl-2-(2-trifluoromethyl-phenyl)-pyrimidin-4-yl]-(5-fluoro-1H-indazol-3-yl)-amine]
	> 7.00	221 to 223	Nc1ccc2[nH]nc(Nc3nc(-c4ccccc4C(F)(F)F)nc4ccccc34)c2c1 [II-73, (5-Amino-1H-indazol-3-yl)-[2-(2-trifluoromethyl-phenyl)-quinazolin-4-yl]-amine]
> 7.00	6.00 to 7.00	> 300	Cc1cc(Nc2nc(-c3ccc(C(C)(C)C)cc3)nc3ccccc23)[nH]n1 [III-41, [2-(4-tert-Butylphenyl)-quinazolin-4-yl]-(5-methyl-2H-pyrazol-3-yl)-amine]
> 7.00	> 7.00	231 to 232	Cc1cc(Nc2nc(-c3cccc(Oc4ccccc4)c3)nc3ccccc23)[nH]n1 [III-60, (5-Methyl-2H-pyrazol-3-yl)-[2-(3-phenoxyphenyl)-quinazolin-4-yl]-amine]
> 7.00	> 7.00	193 to 195	c1ccc(Oc2cccc(-c3nc(Nc4cc(C5CC5)n[nH]4)c4ccccc4n3)c2)cc1 [III-61, (5-Cyclopropyl-2H-pyrazol-3-yl)-[2-(3-phenoxyphenyl)-quinazolin-4-yl]-amine]
6.00 to 7.00	6.00 to 7.00	285 to 286	c1ccc2c(Nc3ccn[nH]3)nc(-c3ccncc3)nc2c1 [III-64, (2H-Pyrazol-3-yl)-(2-pyridin-4-yl-quinazolin-4-yl)-amine]
> 7.00	> 7.00	218 to 219	CC(C)c1cc(Nc2nc(-c3ccccc3)nc3ccccc23)[nH]n1 [III-67, (5-Isopropyl-2H-pyrazol-3-yl)-(2-phenyl-quinazolin-4-yl)-amine]
4.70 to 6.00	4.70 to 6.00	136 to 137	CC(C)(C)c1cc(Nc2nc(-c3ccccc3)nc3ccccc23)[nH]n1 [III-68, (5-tert-Butyl-2H-pyrazol-3-yl)-(2-phenyl-quinazolin-4-yl)-amine]
6.00 to 7.00	6.00 to 7.00	207 to 209	c1ccc(-c2cc(Nc3nc(-c4ccccc4)nc4ccccc34)[nH]n2)cc1 [III-71, (5-Phenyl-2H-pyrazol-3-yl)-(2-phenyl-quinazolin-4-yl)-amine]
6.00 to 7.00	> 7.00	271 to 273	COC(=O)c1cc(Nc2nc(-c3ccccc3)nc3ccccc23)[nH]n1 [III-73, (5-Methoxycarbonyl-2H-pyrazol-3-yl)-(2-phenyl-quinazolin-4-yl)-amine]
6.00 to 7.00	6.00 to 7.00	238 to 239	OCc1cc(Nc2nc(-c3ccccc3)nc3ccccc23)[nH]n1 [III-74, (5-Hydroxymethyl-2H-pyrazol-3-yl)-(2-phenyl-quinazolin-4-yl)-amine]
6.00 to 7.00	> 7.00	190 to 191	COCc1cc(Nc2nc(-c3ccccc3)nc3ccccc23)[nH]n1 [III-75, (5-Methoxymethyl-2H-pyrazol-3-yl)-(2-phenyl-quinazolin-4-yl)-amine]
> 7.00	> 7.00	169 to 170	COCCCc1cc(Nc2nc(-c3ccccc3)nc3ccccc23)[nH]n1 [III-77, [-(3-Methoxyprop-1-yl)-2H-pyrazol-3-yl]-(2-phenyl-quinazolin-4-yl)-amine]
4.70 to 6.00	4.70 to 6.00	189	Brc1cn[nH]c1Nc1nc(-c2ccccc2)nc2ccccc12 [III-101, (4-Bromo-2H-pyrazol-3-yl)-(2-phenyl-quinazolin-4-yl)-amine]

pKi (Aurora-2)	pKi (GSK-3β (AA 1-420))	melting point [°C]	Structure (SMILES)
6.00 to 7.00	6.00 to 7.00	183 to 185	Cc1n[nH]c(Nc2nc(-c3ccccc3)nc3ccccc23)c1Br [III-102, (4-Bromo-5-methyl-2H-pyrazol-3-yl)-(2-phenyl-quinazolin-4-yl)-amine]
4.70 to 6.00	4.70 to 6.00	> 250	N#Cc1cn[nH]c1Nc1nc(-c2ccccc2)nc2ccccc12 [III-103, (4-Cyano-2H-pyrazol-3-yl)-(2-phenyl-quinazolin-4-yl)-amine]
6.00 to 7.00	6.00 to 7.00	179 to 181	Cc1cc(Nc2nc(N3CCNCC3)nc3ccccc23)[nH]n1 [III-105, (5-Methyl-2H-pyrazol-3-yl)-(2-piperazin-1-yl-quinazolin-4-yl)-amine]
> 7.00	> 7.00	148 to 150	Cc1cc(Nc2nc(N3CCC(C)CC3)nc3ccccc23)[nH]n1 [III-106, [2-(4-Methylpiperidin-1-yl)-quinazolin-4-yl]-(5-methyl-2H-pyrazol-3-yl)-amine]
6.00 to 7.00	6.00 to 7.00	105 to 107	Cc1cc(Nc2nc(N3CCN(C)CC3)nc3ccccc23)[nH]n1 [III-107, [2-(4-Methylpiperazin-1-yl)-quinazolin-4-yl]-(5-methyl-2H-pyrazol-3-yl)-amine]
> 7.00	6.00 to 7.00	175	Cc1cc(Nc2nc(N3CCC(CCO)CC3)nc3ccccc23)[nH]n1 [III-110]
> 7.00	6.00 to 7.00	191	Cc1cc(Nc2nc(N3CCC4(CC3)OCCO4)nc3ccccc23)[nH]n1 [III-112, [2-(1,4-Dioxa-8-aza-spiro[4,5]dec-8-yl)-quinazolin-4-yl]-(5-methyl-2H-pyrazol-3-yl)-amine]
6.00 to 7.00		191	Cc1cc(Nc2nc(N3CCC(N4CCCC4)CC3)nc3ccccc23)[nH]n1 [III-113]
> 7.00	6.00 to 7.00	123	Cc1cc(Nc2nc(N3CCC(O)CC3)nc3ccccc23)[nH]n1 [III-114, [2-(4-Hydroxypiperidin-1-yl)-quinazolin-4-yl]-(5-methyl-2H-pyrazol-3-yl)-amine]
> 7.00	> 7.00	237	c1ccc2c(c1)CN(c1nc(Nc3cc(C4CC4)n[nH]3)c3ccccc3n1)C2 [III-116, (5-Cyclopropyl-2H-pyrazol-3-yl)-[2-(1,3-dihydro-isoindol-2-yl)-quinazolin-4-yl]-amine]
> 7.00	> 7.00	150 to 153	c1ccc2c(c1)CCN2c1nc(Nc2cc(C3CC3)n[nH]2)c2ccccc2n1 [III-119, (5-Cyclopropyl-2H-pyrazol-3-yl)-[2-(2,3-dihydro-indol-1-yl)-quinazolin-4-yl]-amine]
> 7.00	> 7.00	137 to 145	c1ccc2c(c1)CCCN2c1nc(Nc2cc(C3CC3)n[nH]2)c2ccccc2n1 [III-121, (5-Cyclopropyl-2H-pyrazol-3-yl)-[2-(3,4-dihydro-2H-quinolin-1-yl)-quinazolin-4-yl]-amine]
		172 to 175	Cc1cc(Nc2nc(N3CCC(C)CC3)nc(C)c2N)n[nH]1 [IV-7, [5-Amino-6-methyl-2-(4-methylpiperidin-1-yl)-pyrimidin-4-yl]-(5-methyl-2H-pyrazol-3-yl)-amine]
		225	Cc1cc(Nc2nc(-c3ccccc3)nc3cnccc23)n[nH]1 [IV-30, (5-Methyl-2H-pyrazol-3-yl)-(2-phenyl-pyrido[3,4-d]pyrimidin-4-yl)-amine]
		234	Cc1cc(Nc2nc(-c3ccccc3)nc3ncccc23)n[nH]1 [IV-31, (5-Methyl-2H-pyrazol-3-yl)-(2-phenyl-pyrido[2,3-d]pyrimidin-4-yl)-amine]
		232 to 233	c1ccc(-c2nc(Nc3cc(C4CC4)[nH]n3)c3ccncc3n2)cc1 [IV-32, (5-Cyclopropyl-2H-pyrazol-3-yl)-(2-phenyl-pyrido[3,4-d]pyrimidin-4-yl)-amine]

Structure (SMILES)	pKi (Aurora-2)	pKi (GSK-3β (AA 1-420))	melting point [°C]
CC(C)(C)OC(=O)NCCCc1cc(Nc2nc(-c3ccccc3)nc3ccccc23)[nH]n1 [III-80, [5-(3-tert-Butoxycarbonylaminoprop-1-yl)-2H-pyrazol-3-yl]-(2-phenyl-quinazolin-4-yl)-amine]	> 7.00		199 to 200
